Test results as given in US20050265944A1, “Carbohydrate-based anti-wrinkle and tissue remodelling compounds” (Ultraceuticals R&D Limited, priority 2002, published 2005).

Columns and labels:
skin of normal rats = test: Intradermal injection, cell migration / cellularity at the site of administration (histology); format: in vivo, female Fischer rats; conditions: 50 microlitre intradermal, 48 hours; for cellularity at the site of injection: versus saline
Description: The effects of intradermally injected glucose, maltose and maltopentaose on cell migration into the site of administration in the skin of normal rats. Healthy, specific pathogen free female Fischer rats 10-12 weeks of age (n=3) were anesthetised with ether and hair on their backs was clipped (electric miniclippers) from two areas of approximately 1.5 cm×4 cm either side of and paralleling the spinal column. The test and control substances were injected into the centre of 1 square cm defined areas. Substances were administered in such a fashion that each was injected into 4 different positions at least once in order to control for any possible anatomical positioning effect. Agents were dissolved in normal saline at a concentration of 100 mg/ml and sterile filtered prior to administration. Fifty microlitre injection volumes were given intradermally using 30 gauge needles and control injections consisted of 50 microlitres of sterile normal saline. Animals were sacrificed 48 hours following injection and injection sites were subjected to histological sectioning followed by microscopic examination.
(§1) The effects of intradermally injected dextran and maltopentaose on cell migration into the site of administration in the skin of normal rats. In a similar experiment to that outlined in Example 1 above, female Fischer rats, 10-12 weeks of age (n=3) were treated with 50 microlitre volumes of i) 50 mg/ml of clinical grade dextran (MW 71,400); ii) 50 mg/ml maltopentaose; or iii) normal saline using a 30 gauge needle. Skin injection sites were submitted for histological sectioning and examined microscopically 48 hours following injection.
as §1, with “injected maltotriose” for “injected dextran”, “age (n=2)” for “age (n=3)”, “i) 100” for “i) 50”, “of maltotriose;” for “of clinical grade dextran (MW 71,400);”, “ii) 100” for “ii) 50”
(§2) The effects of intradermally injected maltopentaose and 1,4-beta-mannohexaose on cell migration into the site of administration in the skin of normal rats. In a similar experiment to that outlined in Example 1 above, female Fischer rats, 10-12 weeks of age (n=2) were treated with 50 microlitre volumes of i) 100 mg/ml of maltopentaose; ii) 100 mg/ml of 1,4-beta-mannohexaose; or iii) normal saline using a 30 gauge needle. Skin injection sites were submitted for histological sectioning and examined microscopically 48 hours following injection.
as §2, with “amylose” for “maltopentaose”, “the O-phosphorylated mannan isolated from Pichia holstii” for “1,4-beta-mannohexaose”, “50” for “100”, “amylose;” for “maltopentaose;”, “the O-phosphorylated mannan from Pichia holstii;” for “1,4-beta-mannohexaose;”, “injection. […]” for “injection.”

cutaneous tissue = test: Dermal application: cellularity and collagen deposition in cutaneous tissue (general statements); format: in vivo; conditions: general statement in the description
[1] = test system: skin (dermis) fibroblasts; test: Intradermal injection into abdominal skin, cellularity, collagen (Gomori's stain) and fibroblasts (prolyl 4-hydroxylase immunohistochemistry); format: in vivo, female Wistar rats; conditions: Example 7, 50 mg/ml in sterile saline, 50 microliters intradermal; for dermal collagen (Gomori's staining) / fibroblast-like cells / cellular infiltrate in the dermis: 48 hours and 7 days; for fibroblast-like cells / cellular infiltrate in the dermis: H&E
Description: Following ether anaesthesia, hair was clipped from skin on both sides of the abdominal region of 8-10 week old female Wistar rats. Intradermal injections (via a 30 gauge needle) of either sterile saline (50 microliters), PM5 (50 microliters, 50 mg/ml in sterile saline) or amylopectin (50 microliters, 50 mg/ml in sterile saline) were placed in the centre of 1 cm^2 defined areas of abdominal skin. Forty-eight hours and 7 days after injection, groups of animals were euthanased by CO2 overdose and skin samples were examined following the preparation of 6 μm histological sections that were stained with H&E and Gomori's (collagen) stain. In addition, immunohistochemistry using a mouse anti-rat prolyl 4-hydroxylase monoclonal antibody (Chemicon International Inc) in paraffin embedded skin sections was used to identify fibroblasts within the dermis.

[2] = Example 1, 100 mg/ml in normal saline

Compound: OC[C@H]1O[C@H](O[C@H]2[C@H](O)[C@@H](O)C(O)O[C@@H]2CO)[C@H](O)[C@@H](O)[C@@H]1O (mixture of isomers) [maltose, reference compound]
- cellularity at the site of injection (skin of normal rats; [2]): neither saline, glucose nor maltose had any effect on cellularity

Compound: OC[C@H]1O[C@@H](O[C@H]2[C@H](O)[C@H](O)[C@H](O[C@H]3[C@H](O)[C@H](O)[C@H](O[C@H]4[C@H](O)[C@H](O)[C@H](O[C@H]5[C@H](O)[C@H](O)C(O)O[C@@H]5CO)O[C@@H]4CO)O[C@@H]3CO)O[C@@H]2CO)[C@@H](O)[C@@H](O)[C@@H]1O (stereo partly drawn) [1,4-beta-D-mannopentaose]
- increase in cellularity and collagen deposition in cutaneous tissue / tissue remodelling effect (cutaneous tissue): effective tissue remodelling agents and effective anti-wrinkle compounds

Compound: OC[C@H]1O[C@@H](O[C@H]2[C@H](O)[C@H](O)[C@H](O[C@H]3[C@H](O)[C@H](O)[C@H](O[C@H]4[C@H](O)[C@H](O)[C@H](O[C@H]5[C@H](O)[C@H](O)[C@H](O[C@H]6[C@H](O)[C@H](O)C(O)O[C@@H]6CO)O[C@@H]5CO)O[C@@H]4CO)O[C@@H]3CO)O[C@@H]2CO)[C@@H](O)[C@@H](O)[C@@H]1O (stereo partly drawn) [1,4-beta-mannohexaose]
- cellularity, 1,4-beta-mannohexaose injection sites versus maltopentaose sites (skin of normal rats; Example 4, 100 mg/ml): the results were not significantly different
- cellularity at the site of injection (skin of normal rats; Example 4, 100 mg/ml): increases in cellularity
- increase in cellularity and collagen deposition in cutaneous tissue / tissue remodelling effect (cutaneous tissue): effective tissue remodelling agents and effective anti-wrinkle compounds

Compound: O=P(O)(O)OC[C@H]1O[C@H](O[C@@H]2[C@H](O)[C@@H](O[C@@H]3[C@H](O)[C@@H](O[C@@H]4[C@H](O)[C@@H](O[C@H]5[C@@H](O)[C@H](O)[C@@H](CO)O[C@@H]5O)O[C@H](CO)[C@H]4O)O[C@H](CO)[C@H]3O)O[C@H](CO)[C@H]2O)[C@@H](O)[C@@H](O)[C@@H]1O [PM5, 6-O-phospho-alpha-D-mannose-(1,3)-alpha-D-mannose-(1,3)-alpha-D-mannose-(1,3)-alpha-D-mannose-(1,2)-alpha-D-mannose]
- increase in cellularity and collagen deposition in cutaneous tissue / tissue remodelling effect (cutaneous tissue): effective tissue remodelling agents and effective anti-wrinkle compounds
- dermal collagen (Gomori's staining) [1]: collagen deposited in the lower dermal layers
- fibroblast-like cells / cellular infiltrate in the dermis [1]: increase in fibroblast-like cells

Compound: amylopectin
- increase in cellularity and collagen deposition in cutaneous tissue / tissue remodelling effect (cutaneous tissue): particularly effective in this regard
- fibroblast numbers (immunohistochemical staining, anti-rat prolyl 4-hydroxylase) [1]: influx of fibroblastoid cells
- dermal collagen (Gomori's staining) [1]: increase in dermal collagen
- fibroblast-like cells / cellular infiltrate in the dermis [1]: marked “fibroblast-like” cellular infiltrate in both the upper and lower regions of the dermis
- fibroblast numbers (immunohistochemical staining, anti-rat prolyl 4-hydroxylase) ([1]; listed as Amylopectin): increase in dermal collagen (as indicated Gomori's staining) (FIG. 3), and fibroblast numbers

Compound: amylose
- cellularity at the site of injection (skin of normal rats; Example 5, 50 mg/ml): increases in cellularity

Compound: dextran [reference compound]
- cellularity at the site of injection (skin of normal rats; Example 2, 50 mg/ml): increased cellularity was noticed in the dextran injection sites but this was not statistically significantly different from the saline injected sites

Compound: maltoheptaose
- increase in cellularity and collagen deposition in cutaneous tissue / tissue remodelling effect (cutaneous tissue): effective tissue remodelling agents and effective anti-wrinkle compounds

Compound: maltohexaose
- increase in cellularity and collagen deposition in cutaneous tissue / tissue remodelling effect (cutaneous tissue): effective tissue remodelling agents and effective anti-wrinkle compounds

Compound: maltopentaose
- cellularity at the site of injection (skin of normal rats; [2]): significant increase in cellularity (P=0.001) versus saline
- cellularity at the site of injection (skin of normal rats; Example 2, 50 mg/ml): clear and significant difference in cellularity versus saline
- cellularity at the site of injection (skin of normal rats; Example 3, 100 mg/ml): clear and significant difference in cellularity versus saline
- cellularity at the site of injection (skin of normal rats; Example 4, 100 mg/ml): increases in cellularity
- increase in cellularity and collagen deposition in cutaneous tissue / tissue remodelling effect (cutaneous tissue): effective tissue remodelling agents and effective anti-wrinkle compounds

Compound: maltotriose [reference compound]
- cellularity at the site of injection (skin of normal rats; Example 3, 100 mg/ml): no increase in cellularity
